From patent US7601850B2, “Phenyl-thiophene type vitamin D receptor modulators” (Eli Lilly and Company, priority 2002, dated 2009) come the findings set out here.

For orientation: EC50 means the concentration at which the effect is half-maximal.

One assay deals with rat osteocalcin promoter. The assay is described as follows: OCN (osteocalcin) promoter assay in RG-15 (ROS 17/2.8) cells.
Settings: not given
The class given is cell-based. Here is the method: 4. The OCN Promoter test is described in the “Assay” section of the Description, infra.
3. The OCN (Osteocalcin) Promoter Assay
The OCN Promoter Assay is an indicator and marker for osteoporosis. Desired assay results are EC50 less than or equal to 325 nM. Preferred assay results are less than 50 nM.
(3) Materials and Method for The OCN Promoter Assay:
The activation of osteocalcin by VDR ligands was evaluated in a rat osteoblast-like cell line RG-15 (ROS 17/2.8) stably expressing rat osteocalcin promoter fused with luciferase reporter gene. The stable cell lines were established as reported before (Activation of Osteocalcin Transcription involves interaction of protein kinase A- and Protein kinase C-dependent pathways. Boguslawski, G., Hale, L. V., Yu, X.-P., Miles, R. R., Onyia, J. E., Santerre R. F., Chandrasekhar, S. J Biol. Chem. 275, 999-1006, 2000). Confluent RG-15 cells maintained in DMEM/F-12 medium (3:1) containing 5% FBS, 300 µg/ml G418 and at 37° C. under 5% CO2/95% air atmosphere were trypsinized (0.25% trypsin) and plated into white opaque 96-well cell culture plates (25000 cells/well). After 24 hr, cells (in DMEM/F-12 medium+2% FBS) were treated with various concentrations of compounds, dissolved in DMSO. The final DMSO concentration remained at 0.01% (v/v). After 48 hr treatment, the medium was removed, cells were lysed with 50 µl of lysis buffer (From Luciferase reporter assay system, Roche Diagnostics, Indianapolis, Ind.) and assayed for luciferase activity using the Luciferase Reporter Gene Assay kit from Boehringer Mannheim as per manufacturer's specifications.
With `CCC(CC)(c1ccc(OCC(O)C(C)(C)C)c(C)c1)c1cc(C)c(C(=O)N[C@H](C)C(=O)O)s1` (stereo partly drawn) [Ex. 57, D-2-[(5-{1-Ethyl-1-[4-(2-hydroxy-3,3-dimethyl-butoxy)-3-methyl-phenyl]-propyl}-3-methyl-thiophene-2-carbonyl)-amino]-propionic acid], the EC50 was 115 nM. Take `CCC(CC)(c1ccc(OCC(O)C(C)(C)C)c(C)c1)c1cc(C)c(C(=O)N2CCC[C@H]2C(=O)O)s1` (stereo partly drawn) [Ex. 75, L-1-(5-{1-Ethyl-1-[4-(2-hydroxy-3,3-dimethyl-butoxy)-3-methyl-phenyl]-propyl}-3-methyl-thiophene-2-carbonyl)-pyrrolidine-2-carboxylic acid]: the half-maximal effective concentration (EC50) was found to be 423 nM.

In the case of `CCC(CC)(c1ccc(OCC(O)C(C)(C)C)c(C)c1)c1cc(C)c(C(=O)N[C@@H](C(=O)O)C(C)C)s1` (stereo partly drawn) [Ex. 86, D-2-[(5-{1-Ethyl-1-[4-(2-hydroxy-3,3-dimethyl-butoxy)-3-methyl-phenyl]-propyl}-3-methyl-thiophene-2-carbonyl)-amino]-3-methyl-butyric acid], the EC50 came out at 205 nM.

`CCC(CC)(c1ccc(OCC(O)C(C)(C)C)c(C)c1)c1cc(C)c(C(=O)N[C@@H](C(=O)O)C(C)C)s1` (stereo partly drawn) [Ex. 87, D-2-[(5-{1-ethyl-1-[4-(2-hydroxy-3,3-dimethyl-butoxy)-3-methyl-phenyl]-propyl}-3-methyl-thiophene-2-carbonyl)-amino]-3-methyl-butyric acid]: the EC50 was greater than 1000 nM.

Still in this assay, the particulars now being: Rattus norvegicus.
With `CCC(CC)(c1ccc(OCC(O)C(C)(C)C)c(C)c1)c1cc(C)c(C(=O)N(C)OC)s1` (stereo not drawn) [Ex. 42, 5-{1-Ethyl-1-[4-(2-hydroxy-3,3-dimetliyl-butyoxy)-3-methyl-phenyl]-propyl}-3methyl-thiophene-2-carboxylic acid methoxy-methyl-amide], the EC50 turned out to be 33.5 nM.

For `CCC(CC)(c1ccc(OCC(O)C(C)(C)C)c(C)c1)c1cc(C)c(C(=O)NCC(=O)OC)s1` (stereo not drawn) [Ex. 46, 2-[5-{1-Ethyl-1-{4-(2-hydroxy-3,3-dimethyl-butyoxy)-3-methyl-phenyl-propyl}-3-methyl-thiophene-2-carbonyl)-amino]-acetic acid methyl ester], the EC50 was 43.6 nM.

In the case of `CCC(CC)(c1ccc(OCC(O)C(C)(C)C)c(C)c1)c1cc(C)c(C(=O)NCC(=O)O)s1` (stereo not drawn) [Ex. 47, 2-[5-{1-Ethyl-1-{4-(2-hydroxy-3,3-dimethyl-butyoxy)-3-methyl-phenyl-propyl}-3-methyl-thiophene-2-carbonyl)-amino]-acetic acid], the EC50 is 27.7 nM. Turning to `CCC(O)(CC)COc1ccc(C(CC)(CC)c2cc(C)c(C(=O)O)s2)cc1C` [Ex. 51, 5-{1-Ethyl-1-[4-(2-ethyl-2-hydroxy-butoxy)-3-methyl-phenyl]-propyl}-3-methyl-thiophene-2-carboxylic acid], the concentration giving a half-maximal response (EC50) came out at 781 nM.

Turning to `CCC(O)(CC)COc1ccc(C(CC)(CC)c2cc(C)c(C(=O)NCC(=O)O)s2)cc1C` [Ex. 53, 2-[(5-{1-Ethyl-1-[4-(2-ethyl-2-hydroxy-butoxy)-3-methyl-phenyl]-propyl}-3-methyl-thiophene-2-carbonyl)-amino]-acetic acid], the half-maximal effective concentration (EC50) was determined as 267 nM. Still for that read-out and setting: to `CCC(CC)(c1ccc(OCC(O)C(C)(C)C)c(C)c1)c1cc(C)c(C(=O)N[C@@H](CC(=O)O)C(=O)O)s1` (stereo partly drawn) [Ex. 59, L-2-[(5-{1-Ethyl-1-[4-(2-hydroxy-3,3-dimethyl-butoxy)-3-methyl-phenyl]-propyl}-3-methyl-thiophene-2-carbonyl)-amino]-succinic acid] belongs 319 nM; to `CCC(C)[C@H](NC(=O)c1sc(C(CC)(CC)c2ccc(OCC(O)C(C)(C)C)c(C)c2)cc1C)C(=O)OC` (stereo partly drawn) [Ex. 68, L-2-[(5-{1-Ethyl-1-[4-(2-hydroxy-3,3-dimethyl-butoxy)-3-methyl-phenyl]-propyl}-3-methyl-thiophene-2-carbonyl)-amino]-3-methyl-pentanoic acid methyl ester], 56 nM. Regarding `CCC(C)[C@H](NC(=O)c1sc(C(CC)(CC)c2ccc(OCC(O)C(C)(C)C)c(C)c2)cc1C)C(=O)O` (stereo partly drawn) [Ex. 69, L-2-[(5-{1-Ethyl-1-[4-(2-hydroxy-3,3-dimethyl-butoxy)-3-methyl-phenyl]-propyl}-3-methyl-thiophene-2-carbonyl)-amino]-3-methyl-pentanoic acid], the EC50 came to 487 nM.

Consider `CCC(CC)(c1ccc(OCC(O)C(C)(C)C)c(C)c1)c1cc(C)c(C(=O)N2CCC[C@@H]2C(=O)O)s1` (stereo partly drawn) [Ex. 81, D-1-(5-{1-ethyl-1-[4-(2-hydroxy-3,3-dimethyl-butoxy)-3-methyl-phenyl]-propyl}-3-methyl-thiophene-2-carbonyl)-pyrrolidine-2-carboxylic acid], for which the EC50 worked out at 200 nM. Regarding `CCC(CC)(c1ccc(OCC(O)C(C)(C)C)c(C)c1)c1ccc(C(=O)O)s1` (stereo not drawn) [Ex. 88, 3′-[4-(2-hydroxy-3,3-dimethylbutoxy)-3-methylphenyl]-3′-[5-carboxy-thiophen-2-yl]pentane], the EC50 was found to be 169 nM. Same read-out and setting: under `CCC(CC)(c1ccc(OCC(=O)C(C)(C)C)c(C(C)C)c1)c1ccc(C(=O)OC)s1` [Ex. 91, 3′-[4-(2-oxo-3,3-dimethylbutoxy)-3-(1-methylethyl)phenyl]-3′-[5-methoxycarbonyl-thiophen-2-yl]pentane] stands 212 nM; under `CCc1cc(C(CC)(CC)c2ccc(C(=O)O)s2)ccc1OCC(C)(O)C(C)(C)C` (stereo not drawn) [Ex. 107, 3′-[4-(2-hydroxy-2,3,3-trimethylbutoxy)-3-ethylphenyl]-3′-[5-carboxy-thiophen-2-yl]pentane], 42.3 nM; under `CCCc1cc(C(CC)(CC)c2ccc(C(=O)O)s2)ccc1OCC(C)(O)C(C)(C)C` (stereo not drawn) [Ex. 111, 3′-[4-(2-hydroxy-2,3,3-trimethylbutoxy)-3-n-propylphenyl]-3′-[5-carboxy-thiophen-2-yl]pentane], 34.5 nM. On to `CCC(CC)(c1ccc(OCC(C)(O)C(C)(C)C)c(OC)c1)c1ccc(C(=O)N[C@@H](C)C(=O)O)s1` (stereo partly drawn) [Ex. 115, d-3′-[4-(2-hydroxy-2,3,3-trimethylbutoxy)-3-methoxyphenyl]-3′-[5-(carboxy-1-ethylamino)carbonyl-thiophen-2-yl]pentane], for which the 50% effective concentration (EC50) came out at 19.9 nM.

For the compound `CCC(CC)(c1ccc(OCC(=O)C(C)(C)C)c(C)c1)c1cc(C)c(C(=O)N(C)CC(=O)O)s1` [Ex. 118, N-methyl-2-[(5-{1-[4-(3,3-Dimethyl-2-oxo-butoxy)-3-methyl-phenyl]-1-ethyl-propyl}-3-methyl-thiophene-2-carbonyl)-methylamino]-acetic acid], the 50% effective concentration (EC50) came out at 32.2 nM. The same measure, in the same setting: to `CCC(CC)(c1ccc(OCC(O)C(C)(C)C)c(C)c1)c1cc(C)c(C(=O)N(C)CC(=O)O)s1` (stereo not drawn) [Ex. 123, N-2-[(5-{1-ethyl-1-[4-(2-hydroxy-3,3-dimethyl-butoxy)-3-methyl-phenyl]-propyl}-3-methyl-thiophene-2-carbonyl)-methylamino]-acetic acid] belongs 475 nM; to `CCC(CC)(c1ccc(OCC(O)C(C)(C)C)c(C)c1)c1cc(C)c(CN(CC(=O)O)C(C)=O)s1` (stereo not drawn) [Ex. 130, 2-[N-acetyl-(5-{1-ethyl-1-[4-(2-hydroxy-3,3-dimethyl-butoxy)-3-methyl-phenyl]-propyl}-3-methyl-thiophen-2-ylmethyl)-amino]-acetic acid], 49.7 nM; to `CCC(CC)(c1ccc(OCC(=O)C(C)(C)C)c(C)c1)c1cc(C)c(CN(CC(=O)O)C(C)=O)s1` [Ex. 133, 2-[N-Acetyl-(5-{1-[4-(3,3-dimethyl-2-oxo-butoxy)-3-methyl-phenyl]-1-ethyl-propyl}-3-methyl-thiophen-2-yl-methyl)-amino]-acetic acid], 49.2 nM.

Regarding `CCC(CC)(c1ccc(OCC(O)C(C)(C)C)c(C)c1)c1cc(C)c(S(=O)(=O)NCC(=O)O)s1` (stereo not drawn) [Ex. 137], the EC50 is 24.2 nM. Consider `CCC(CC)(c1ccc(OCC(=O)C(C)(C)C)c(C)c1)c1cc(C)c(S(=O)(=O)NCC(=O)O)s1` [Ex. 139], for which the EC50 turned out to be 31 nM. Still for that read-out and setting: under `CCOC(=O)CCNS(=O)(=O)c1sc(C(CC)(CC)c2ccc(OCC(O)C(C)(C)C)c(C)c2)cc1C` (stereo not drawn) [Ex. 140] stands 72.5 nM. With `CCC(CC)(c1ccc(OCC(=O)C(C)(C)C)c(C)c1)c1cc(C)c(S(=O)(=O)NCCC(=O)O)s1` [Ex. 144], the EC50 was 29.2 nM. Consider `CCC(CC)(c1ccc(OCC(=O)C(C)(C)C)c(C)c1)c1cc(C)c(S(=O)(=O)N[C@H](C)C(=O)O)s1` [Ex. 146], for which the EC50 worked out at 27.7 nM.

As to `CCC(CC)(c1ccc(OCC(=S)C(C)(C)C)c(C)c1)c1cc(C)c(S(=O)(=O)N[C@H](C)C(=O)O)s1` [Ex. 147], the concentration for a half-maximal effect (EC50) worked out at 128 nM. In the case of `CCC(CC)(c1ccc(OCC(O)C(C)(C)C)c(C)c1)c1cc(C)c(S(=O)(=O)NC(C)(C)C(=O)OC)s1` (stereo not drawn) [Ex. 148], the EC50 stood at 236 nM. Regarding `CCC(CC)(c1ccc(OCC(O)C(C)(C)C)c(C)c1)c1cc(C)c(S(=O)(=O)Nc2ccccc2C(=O)O)s1` (stereo not drawn) [Ex. 149], the EC50 came to 98.3 nM. For `CCC(CC)(c1ccc(OCC(O)C(C)(C)C)c(C)c1)c1cc(C)c(S(=O)(=O)N[C@H](C)C(=O)OC)s1` (stereo partly drawn) [Ex. 150], the concentration giving a half-maximal response (EC50) came out at 55.2 nM. Regarding `CCC(CC)(c1ccc(OCC(O)C(C)(C)C)c(C)c1)c1cc(C)c(S(=O)(=O)N[C@H](C)C(=O)O)s1` (stereo partly drawn) [Ex. 151], the concentration for a half-maximal effect (EC50) was found to be 48.2 nM.

For the compound `CCC(CC)(c1ccc(OCC(O)C(C)(C)C)c(C)c1)c1ccc(S(=O)(=O)NCC(=O)O)s1` (stereo not drawn) [Ex. 153], the EC50 was found to be 187 nM.
